According to BindingDB's records for PubMed 8558445 (Abbott Laboratories, 1996):

Target: Neuronal acetylcholine receptor subunit alpha-4 (Homo sapiens, UniProt P43681)
Sequence (P43681 whole entry): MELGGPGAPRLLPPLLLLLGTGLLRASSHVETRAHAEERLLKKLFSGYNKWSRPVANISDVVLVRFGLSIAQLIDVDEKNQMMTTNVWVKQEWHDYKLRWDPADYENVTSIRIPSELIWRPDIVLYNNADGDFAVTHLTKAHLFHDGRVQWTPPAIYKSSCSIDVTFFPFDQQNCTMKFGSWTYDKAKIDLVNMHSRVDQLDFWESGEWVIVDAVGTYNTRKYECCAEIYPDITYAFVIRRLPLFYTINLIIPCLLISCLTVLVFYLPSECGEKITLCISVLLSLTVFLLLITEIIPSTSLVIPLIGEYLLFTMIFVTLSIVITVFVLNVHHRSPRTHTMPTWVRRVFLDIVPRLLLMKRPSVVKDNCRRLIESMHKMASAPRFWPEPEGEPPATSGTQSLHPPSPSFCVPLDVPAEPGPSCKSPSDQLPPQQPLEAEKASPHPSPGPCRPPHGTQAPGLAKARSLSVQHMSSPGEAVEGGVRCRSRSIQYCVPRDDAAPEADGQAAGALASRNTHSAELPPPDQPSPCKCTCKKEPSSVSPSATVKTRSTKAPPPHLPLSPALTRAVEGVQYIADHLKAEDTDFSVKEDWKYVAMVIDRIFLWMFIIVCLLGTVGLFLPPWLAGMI

SMILES	Ki [nM]
CN1[C@@H](C[C@@H](O)c2ccccc2)CCC[C@H]1CC(=O)c1ccccc1 [Lobeline]	1.92
C[N+](C)(C)CC[N+]1(C)Cc2c(Cl)c(Cl)c(Cl)c(Cl)c2C1 [CAS_6243]	> 10000
C[N+](C)(C)CCOC(N)=O [(2-Hydroxyethyl)trimethyl ammonium chloride carbamate]	68.2
CNC1(C)C2CCC(C2)C1(C)C (stereo unspecified) [Methyl-(2,3,3-trimethyl-bicyclo[2.2.1]hept-2-yl)-amine(Mecamylamine)]	> 10000
C=C(C=O)C[C@H]1C[C@H](O)[C@]2(C)O[C@@H]3C[C@@H]4O[C@@H]5C[C@]6(C)O[C@]7(C)CC[C@@H]8O[C@@H]9C[C@]%10(C)O[C@@H]%11C(C)=CC(=O)O[C@H]%11C[C@H]%10O[C@H]9C[C@@H](C)[C@H]8O[C@H]7C[C@H]6O[C@@]5(C)C/C=C\[C@H]4O[C@H]3C[C@H]2O1	4730
c1cncc(C2CCCCN2)c1 (stereo not drawn) [(+-)-anabasine]	37.6
COc1cc2c3cc1Oc1cc(ccc1O)C[C@H]1c4c(cc(OC)c(O)c4Oc4ccc(cc4)C[C@@H]3N(C)CC2)CC[N+]1(C)C [CAS_57-94-3]	3480
CCN1C[C@]2(COC(=O)c3ccccc3-n3c(O)cc(C)c3O)CC[C@H](OC)[C@]34C5C[C@@H]6[C@@H](OC)C[C@@](O)(C5[C@H]6OC)[C@@](O)(C13)[C@@H](OC)C24 (stereo partly drawn) [[(1S,4S,5R,6S,8R,9R,13S,16S,18S)-11-ethyl-8,9-dihydroxy-4,6,16,18-tetramethoxy-11-azahexacyclo[7.7.2.1^{2,5}.0^{1,10}.0^{3,8}.0^{13,17}]nonadecan-13-yl]methyl 2-[(3S)-3-methyl-2,5-dioxopyrrolidin-1-yl]benzoate]	3210
O=c1cccc2n1C[C@H]1CNC[C@H]2C1 [(1S,9R)-7,11-diazatricyclo[7.3.1.0~2,7~]trideca-2,4-dien-6-one]	0.43
C[N+](C)(C)CCCCCCCCCC[N+](C)(C)C [Decamethonium Iodide]	962
C[N+]1(C)CCN(c2ccccc2)CC1 [DMPP]	10.7
